The nature of the data set: physchem. The conditions noted are these: HBS, aqueous buffer.

Structures are written as SMILES.

By solubility is commonly meant the dissolved amount per volume that the medium holds. A low value points to a poorly soluble substance.

As to `Clc1ccc(COC(Cn2ccnc2)c2ccc(Cl)cc2Cl)cc1` (stereo not shown) [econazole, [(dichloro-2,4 phenyl)-2(chloro-4 benzoyloxy)-2 ethyl]-1 imidazole nitrate], the solubility was < 100 µg/mL.
